For assay [1], the target named is T1, purified recombinant human GAC (GLS1) (Homo sapiens, UniProt O94925).
T1 sequence (O94925 55-598 isoform O94925-3 limits assumed): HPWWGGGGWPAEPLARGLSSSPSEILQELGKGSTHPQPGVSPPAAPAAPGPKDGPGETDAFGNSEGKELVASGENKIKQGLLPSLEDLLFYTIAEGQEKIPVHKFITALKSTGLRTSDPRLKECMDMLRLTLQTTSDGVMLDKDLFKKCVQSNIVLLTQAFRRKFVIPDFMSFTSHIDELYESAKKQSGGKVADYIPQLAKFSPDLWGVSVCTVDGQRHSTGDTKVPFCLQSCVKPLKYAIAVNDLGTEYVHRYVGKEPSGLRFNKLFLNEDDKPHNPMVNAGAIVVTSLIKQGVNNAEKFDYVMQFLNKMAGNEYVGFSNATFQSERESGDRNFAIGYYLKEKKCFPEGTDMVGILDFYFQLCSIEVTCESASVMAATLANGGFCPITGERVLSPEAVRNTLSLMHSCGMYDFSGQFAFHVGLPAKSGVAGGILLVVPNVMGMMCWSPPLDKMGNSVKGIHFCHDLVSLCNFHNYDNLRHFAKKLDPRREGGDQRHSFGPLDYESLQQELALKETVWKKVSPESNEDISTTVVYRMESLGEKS
Kind of assay: GLS1 Enzymatic Activity Assay (dual-coupled enzymatic assay). Type of assay: biochemical. The method in brief: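 In this coupled fluorometric format, phosphate-activated GAC (2 nM, 50 mM phosphate) is pre-exposed to compound for 10 min before 1 mM glutamine addition. Product is tracked as resorufin (530/590 nm) over time or at 20 min, and potency is derived by logistic fitting.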

In another assay the test system is A549 cells. Kind of assay: Proliferation Assay (A549 cell viability, Cell Titer Fluor). Type of assay: cell-based. As to conditions: Homo sapiens, 72 hours. The procedure, abridged: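 A549 cells in RPMI 1640 with 10% dialyzed FBS were seeded at 1000 cells/well, grown 24 h, then exposed to compound (0.5% DMSO final) for 72 h at 37 °C, 5% CO2. Viability was read by Cell Titer Fluor fluorescence; EC50 from four-parameter logistic fit.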

In general, IC50 refers to the midpoint of a concentration-inhibition curve. As a reminder, the EC50 is the concentration at which the effect is half-maximal. A higher EC50 goes with a need for much substance. Turning to `O=C(NCc1ccccn1)c1cn(CCCCc2cc3c(-c4ccc(O)cc4)c(C4CC4)[nH]c3nn2)nn1` [Example 138, 1-{4-[6-cyclopropyl-5-(4-hydroxyphenyl)-7H-pyrrolo[2,3-c]pyridazin-3-yl]butyl}-N-(pyridin-2-ylmethyl)-1H-1,2,3-triazole-4-carboxamide], the IC50 in assay [1] was less than 0.1 µM. Moreover, the concentration giving a half-maximal response (EC50) with A549 cells lay within 0.5 to 5 µM.

For `COc1cccnc1-c1c(C2CC2)[nH]c2nnc(CCCCn3cc(C(=O)NCc4cccc(OC(F)(F)F)c4)nn3)cc12` [Example 178, 1-{4-[6-cyclopropyl-5-(3-methoxypyridin-2-yl)-7H-pyrrolo[2,3-c]pyridazin-3-yl]butyl}-N-{[3-(trifluoromethoxy)phenyl]methyl}-1H-1,2,3-triazole-4-carboxamide], in assay [1], the IC50 was less than 0.1 µM. For the same compound, the EC50 in the assay with A549 cells was 0.1 to 0.5 µM.

`O=C(NCc1cccc(C(F)(F)F)n1)c1cn(CCCCc2cc3c(-c4ccc(F)cc4F)c(C4CC4)[nH]c3nn2)nn1` [Example 220, 1-{4-[6-cyclopropyl-5-(2,4-difluorophenyl)-7H-pyrrolo[2,3-c]pyridazin-3-yl]butyl}-N-{[6-(trifluoromethyl)pyridin-2-yl]methyl}-1H-1,2,3-triazole-4-carboxamide]: the half-inhibitory concentration (IC50) in assay [1] is less than 0.1 µM. In the assay on A549 cells, the 50% effective concentration (EC50) was 0.1 to 0.5 µM.

In the case of `Cc1ccc(CNC(=O)c2cn(CCCCc3cc4cc(-c5ccc(F)cc5F)[nH]c4nn3)nn2)cn1` [Example 183, 1-{4-[6-(2,4-difluorophenyl)-7H-pyrrolo[2,3-c]pyridazin-3-yl]butyl}-N-[(6-methylpyridin-3-yl)methyl]-1H-1,2,3-triazole-4-carboxamide], in assay [1], the half-inhibitory concentration (IC50) was less than 0.1 µM. The compound also gave an EC50 in the assay with A549 cells of 0.1 to 0.5 µM.

Take `Cn1cc(CNC(=O)c2cn(CCCCc3cc4cc(C5CC5)[nH]c4nn3)nn2)cn1` [Example 51, 1-(4-{6-cyclopropyl-7H-pyrrolo[2,3-c]pyridazin-3-yl}butyl)-N-[(1-methyl-1H-pyrazol-4-yl)methyl]-1H-1,2,3-triazole-4-carboxamide]: the half-inhibitory concentration (IC50) in assay [1] lay in the range of 0.1 to 0.5 µM. For the same compound, the EC50 in the assay with A549 cells lay within 0.5 to 5 µM.

Turning to `O=C(NCc1ccccn1)c1cn(CCCCc2cc3cc(C4(O)COC4)[nH]c3nn2)nn1` [Example 21, 1-(4-(6-(3-hydroxyoxetan-3-yl)-7H-pyrrolo[2,3-c]pyridazin-3-yl)butyl)-N-(pyridin-2-ylmethyl)-1H-1,2,3-triazole-4-carboxamide], the IC50 in assay [1] is 0.1 to 0.5 µM. Moreover, the EC50 in the assay on A549 cells was greater than 5 µM.

Consider `CCOC(=O)N1CC(c2cc3cc(CCCCn4cc(C(=O)NCc5cc(OC(F)(F)F)ccc5F)nn4)nnc3[nH]2)C1` [Example 132, ethyl 3-(3-{4-[4-({[2-fluoro-5-(trifluoromethoxy)phenyl]methyl}carbamoyl)-1H-1,2,3-triazol-1-yl]butyl)-7H-pyrrolo[2,3-c]pyridazin-6-yl)azetidine-1-carboxylate], for which the IC50 in assay [1] was less than 0.1 µM. In addition, the half-maximal effective concentration (EC50) in the assay on A549 cells was less than 0.1 µM.

Consider `CC(C)c1cc2cc(CCCCn3cc(C(=O)NCc4ccccn4)nn3)nnc2[nH]1` [Example 12, 1-(4-(6-isopropyl-7H-pyrrolo[2,3-c]pyridazin-3-yl)butyl)-N-(pyridin-2-ylmethyl)-1H-1,2,3-triazole-4-carboxamide], for which, in assay [1], the half-inhibitory concentration (IC50) lay within 0.1 to 0.5 µM. In the assay with A549 cells, the EC50 lay within 0.5 to 5 µM.

With `O=C(NCc1ccccc1)c1cn(CCCCc2cc3cc(Cc4ccccc4)[nH]c3nn2)nn1` [Example 14, N-benzyl-1-(4-(6-benzyl-7H-pyrrolo[2,3-c]pyridazin-3-yl)butyl)-1H-1,2,3-triazole-4-carboxamide], the IC50 in assay [1] was less than 0.1 µM. In the assay with A549 cells, this compound yielded a half-maximal effective concentration (EC50) of 0.5 to 5 µM.

Regarding `Cc1ccc(CNC(=O)c2cn(CCCCc3cc4cc(C5CC5)[nH]c4nn3)nn2)cn1` [Example 35, 1-(4-{6-cyclopropyl-7H-pyrrolo[2,3-c]pyridazin-3-yl}butyl)-N-[(6-methylpyridin-3-yl)methyl]-1H-1,2,3-triazole-4-carboxamide], in assay [1], the IC50 is less than 0.1 µM. In the assay with A549 cells, this compound had a 50% effective concentration (EC50) of 0.1 to 0.5 µM.

As to `O=C(Cc1cccc(OC(F)(F)F)c1)Nc1nnc(CCCCc2cc3cc[nH]c3nn2)s1` [Example 63, N-[5-(4-{7H-pyrrolo[2,3-c]pyridazin-3-yl}butyl)-1,3,4-thiadiazol-2-yl]-2-[3-(trifluoromethoxy)phenyl]acetamide], the IC50 in assay [1] fell in the range of 0.1 to 0.5 µM. For the same compound, in the assay on A549 cells, the EC50 lay in the range of 0.5 to 5 µM.

For `O=C(NCc1cc(OC(F)(F)F)ccc1F)c1cn(CCCCc2cc3cc(-c4ccccc4F)[nH]c3nn2)nn1` [Example 205, N-{[2-fluoro-5-(trifluoromethoxy)phenyl]methyl}-1-(4-[6-(2-fluorophenyl)-7H-pyrrolo[2,3-c]pyridazin-3-yl]butyl)-1H-1,2,3-triazole-4-carboxamide], the 50% inhibitory concentration (IC50) in assay [1] is less than 0.1 µM. Besides, the EC50 with A549 cells fell in the range of 0.1 to 0.5 µM.

Consider `O=C(NCc1cccc(OC(F)(F)F)c1)c1cn(CCCCc2cc3cc(-c4ccccc4F)[nH]c3nn2)nn1` [Example 204, 1-{4-[6-(2-fluorophenyl)-7H-pyrrolo[2,3-c]pyridazin-3-yl]butyl}-N-{[3-(trifluoromethoxy)phenyl]methyl}-1H-1,2,3-triazole-4-carboxamide], for which, in assay [1], the IC50 was less than 0.1 µM. The same compound had an EC50 in the assay on A549 cells of 0.5 to 5 µM.

Consider `Cc1ccc(CNC(=O)c2cn(CCCCc3cc4c(I)c(C5CC5)[nH]c4nn3)nn2)cn1` [Example 91, 1-(4-{6-cyclopropyl-5-iodo-7H-pyrrolo[2,3-c]pyridazin-3-yl}butyl)-N-[(6-methylpyridin-3-yl)methyl]-1H-1,2,3-triazole-4-carboxamide], for which, in assay [1], the half-inhibitory concentration (IC50) was less than 0.1 µM. The compound also gave an EC50 in the assay with A549 cells of 0.1 to 0.5 µM.

In the case of `O=C(Cc1ccccn1)Nc1nnc(CCCCc2cc3cc[nH]c3nn2)s1` [Example 2, N-(5-(4-(7H-pyrrolo[2,3-c]pyridazin-3-yl)butyl)-1,3,4-thiadiazol-2-yl)-2-(pyridin-2-yl)acetamide], the IC50 in assay [1] was 0.5 to 5 µM. Also, the concentration giving a half-maximal response (EC50) in the assay with A549 cells is 0.5 to 5 µM.

As to `CC(=O)N1CC(c2cc3cc(CCCCn4cc(C(=O)NCc5cc(OC(F)(F)F)ccc5F)nn4)nnc3[nH]2)C1` [Example 119, 1-{4-[6-(1-acetylazetidin-3-yl)-7H-pyrrolo[2,3-c]pyridazin-3-yl]butyl}-N-{[2-fluoro-5-(trifluoromethoxy)phenyl]methyl}-1H-1,2,3-triazole-4-carboxamide], the IC50 in assay [1] is less than 0.1 µM. The compound further returned a half-maximal effective concentration (EC50) with A549 cells of 0.5 to 5 µM.

Take `O=C(NCc1cc(OC(F)(F)F)ccc1F)c1cn(CCCCc2cc3cc(C4CN(C(=O)OC5CCC5)C4)[nH]c3nn2)nn1` [Example 233, cyclobutyl 3-(3-{4-[4-({[2-fluoro-5-(trifluoromethoxy)phenyl]methyl}carbamoyl)-1H-1,2,3-triazol-1-yl]butyl}-7H-pyrrolo[2,3-c]pyridazin-6-yl)azetidine-1-carboxylate]: the concentration for half-maximal inhibition (IC50) in assay [1] was less than 0.1 µM. The same compound returned a concentration giving a half-maximal response (EC50) in the assay on A549 cells of less than 0.1 µM.

In the case of `O=C(NCc1ccc(C(F)(F)F)cn1)c1cn(CCCCc2cc3c(C4CC4)c(C4CC4)[nH]c3nn2)nn1` [Example 208, 1-(4-{5,6-dicyclopropyl-7H-pyrrolo[2,3-c]pyridazin-3-yl}butyl)-N-{[5-(trifluoromethyl)pyridin-2-yl]methyl}-1H-1,2,3-triazole-4-carboxamide], the IC50 in assay [1] is less than 0.1 µM. The concentration for a half-maximal effect (EC50) in the assay on A549 cells was in the range of 0.1 to 0.5 µM.

`CC(C)(O)c1ccc(CNC(=O)c2cn(CCCCc3cc4c(C5CC5)c(C5CC5)[nH]c4nn3)nn2)cn1` [Example 213, 1-(4-{5,6-dicyclopropyl-7H-pyrrolo[2,3-c]pyridazin-3-yl}butyl)-N-{[6-(2-hydroxypropan-2-yl)pyridin-3-yl]methyl}-1H-1,2,3-triazole-4-carboxamide]: the IC50 in assay [1] is less than 0.1 µM. The EC50 in the assay on A549 cells was in the range of 0.1 to 0.5 µM.

Take `CC(C)(O)c1ccc(CNC(=O)c2cn(CCCCc3cc4c(-c5ccc(C(F)(F)F)cc5)c(C5CC5)[nH]c4nn3)nn2)cn1` [Example 162, 1-(4-{6-cyclopropyl-5-[4-(trifluoromethyl)phenyl]-7H-pyrrolo[2,3-c]pyridazin-3-yl}butyl)-N-{[6-(2-hydroxypropan-2-yl)pyridin-3-yl]methyl}-1H-1,2,3-triazole-4-carboxamide]: the IC50 in assay [1] was less than 0.1 µM. The EC50 in the assay on A549 cells was in the range of 0.1 to 0.5 µM.

Take `O=C(NCc1ccccn1)c1cn(CCCCc2cc3c(Cc4ccccc4F)c(C4CC4)[nH]c3nn2)nn1` [Example 104, 1-(4-{6-cyclopropyl-5-[(2-fluorophenyl)methyl]-7H-pyrrolo[2,3-c]pyridazin-3-yl}butyl)-N-(pyridin-2-ylmethyl)-1H-1,2,3-triazole-4-carboxamide]: the half-inhibitory concentration (IC50) in assay [1] was less than 0.1 µM. The same compound came in with a 50% effective concentration (EC50) with A549 cells of 0.5 to 5 µM.

For the compound `CC(C)OC(=O)N1CC(c2cc3cc(CCCCn4cc(C(=O)NCc5cc(OC(F)(F)F)ccc5F)nn4)nnc3[nH]2)C1` [Example 131, propan-2-yl 3-(3-{4-[4-({[2-fluoro-5-(trifluoromethoxy)phenyl]methyl}carbamoyl)-1H-1,2,3-triazol-1-yl]butyl}-7H-pyrrolo[2,3-c]pyridazin-6-yl)azetidine-1-carboxylate], the concentration for half-maximal inhibition (IC50) in assay [1] was less than 0.1 µM. Moreover, the concentration for a half-maximal effect (EC50) in the assay with A549 cells is less than 0.1 µM.

The values are drawn from patent publication US20160002248A1, “GLS1 INHIBITORS FOR TREATING DISEASE” (Board of Regents, The University of Texas System, priority 2014, published 2016).
